# Measured values reported in ChEMBL document CHEMBL1145886, “Design, synthesis, and biological evaluation of 6-substituted-3-(4-methanesulfonylphenyl)-4-phenylpyran-2-ones: a novel class of diarylheterocyclic selective cyclooxygenase-2 inhibitors” (J Med Chem, 2003).
# Activity calls are given as the source filed them. The rule behind the calls is not given here.
# What was measured:
# Rattus norvegicus [1] = test: In vivo antiinflammatory activity against rat carrageenan-induced foot paw edema model at 3 hr following a 1 mg/kg oral dose; type: functional
# Rattus norvegicus [2] = test: In vivo antiinflammatory activity against rat carrageenan-induced foot paw edema model at 5 hr following a 1 mg/kg oral dose; type: functional
# Rattus norvegicus [3] = test: Analgesic activity was determined in rat using 4% sodium chloride-induced abdominal constriction assay at a duration of 30 min following a 1 mg/kg intraperitoneal dose; type: functional; conditions: Abdomen, ip, 0.5 h
# Rattus norvegicus [4] = test: Analgesic activity was determined in rat using 4% sodium chloride-induced abdominal constriction assay at a duration of 60 min following a 1 mg/kg intraperitoneal dose; type: functional; conditions: Abdomen, ip, 1 h
# [5] = molecular target: T1, Prostaglandin G/H synthase 1 (Ovis aries, UniProt P05979)
# T1 sequence (P05979 whole entry): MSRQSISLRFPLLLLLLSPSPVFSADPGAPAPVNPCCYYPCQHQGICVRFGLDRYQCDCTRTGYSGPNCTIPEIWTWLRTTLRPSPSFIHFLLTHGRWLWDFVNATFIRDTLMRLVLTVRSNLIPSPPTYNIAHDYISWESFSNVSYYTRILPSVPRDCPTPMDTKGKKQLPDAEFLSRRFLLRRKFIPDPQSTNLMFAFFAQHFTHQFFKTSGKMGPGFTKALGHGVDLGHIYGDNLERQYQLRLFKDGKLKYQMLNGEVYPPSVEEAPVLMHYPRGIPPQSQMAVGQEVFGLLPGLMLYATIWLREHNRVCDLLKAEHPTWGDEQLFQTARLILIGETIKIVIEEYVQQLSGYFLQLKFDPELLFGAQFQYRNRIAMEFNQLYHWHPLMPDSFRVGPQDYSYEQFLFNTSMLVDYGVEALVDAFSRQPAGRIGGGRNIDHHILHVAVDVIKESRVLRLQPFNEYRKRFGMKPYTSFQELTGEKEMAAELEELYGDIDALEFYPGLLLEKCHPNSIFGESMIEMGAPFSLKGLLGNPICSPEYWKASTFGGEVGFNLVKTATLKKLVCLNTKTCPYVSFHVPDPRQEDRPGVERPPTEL
# Description: In vitro inhibitory activity against Prostaglandin G/H synthase 1 (COX-1)
# [6] = molecular target: T2, Prostaglandin G/H synthase 2 (Bos taurus, UniProt O62698)
# T2 sequence (O62698 whole entry): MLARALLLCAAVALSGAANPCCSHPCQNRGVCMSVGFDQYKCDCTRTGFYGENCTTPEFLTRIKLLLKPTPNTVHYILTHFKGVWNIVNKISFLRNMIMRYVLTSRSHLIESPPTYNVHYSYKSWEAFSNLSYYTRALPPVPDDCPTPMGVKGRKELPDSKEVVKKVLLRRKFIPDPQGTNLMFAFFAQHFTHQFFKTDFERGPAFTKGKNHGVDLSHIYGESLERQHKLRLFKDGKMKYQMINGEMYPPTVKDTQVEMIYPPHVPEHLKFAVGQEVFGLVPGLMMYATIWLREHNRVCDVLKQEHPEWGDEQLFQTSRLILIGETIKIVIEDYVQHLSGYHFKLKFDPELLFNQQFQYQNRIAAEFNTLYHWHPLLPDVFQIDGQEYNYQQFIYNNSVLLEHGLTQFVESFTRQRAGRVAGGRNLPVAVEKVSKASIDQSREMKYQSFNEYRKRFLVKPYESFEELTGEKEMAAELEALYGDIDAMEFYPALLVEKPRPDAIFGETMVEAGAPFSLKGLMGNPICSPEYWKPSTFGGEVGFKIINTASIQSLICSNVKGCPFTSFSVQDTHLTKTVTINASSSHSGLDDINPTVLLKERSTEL
# Description: In vitro inhibitory activity against prostaglandin G/H synthase 2 (COX-2)
# Rattus norvegicus [7] = test: In vivo antiinflammatory activity against rat carrageenan-induced foot paw edema model at 3 hr following a 1 mg/kg oral dose; NA is inactive; type: functional, organism-based; set-up: dose 1 mg/kg; conditions: at 1 mg/kg
IC50 [5],IC50 [6],Structure (SMILES),inhibition in vivo at 1 mg/kg (Rattus norvegicus [1]),inhibition in vivo at 1 mg/kg (Rattus norvegicus [2]),inhibition in vivo at 1 mg/kg (Rattus norvegicus [3]),inhibition in vivo at 1 mg/kg (Rattus norvegicus [4]),inhibition (Rattus norvegicus [7])
–,–,CC(C)c1cc(-c2ccccc2)c(-c2ccc(S(C)(=O)=O)cc2)c(=O)o1,9.8%,19.5%,67.8%,56.9%,–
301 µM,53.3 µM,CS(=O)(=O)c1ccc(-c2c(-c3ccc(F)cc3)cc(OCc3ccc(Cl)cc3)oc2=O)cc1,–,–,–,–,–
50.7 µM,416 µM,CS(=O)(=O)c1ccc(-c2c(-c3ccccc3)cc(OCc3ccc(Cl)cc3)oc2=O)cc1,–,–,–,–,–
–,–,Cc1ccc(-c2cc(C(F)(F)F)nn2-c2ccc(S(N)(=O)=O)cc2)cc1 [CELECOXIB],79.9%,58.2%,31.7%,62%,–
201 µM,125 µM,Cc1cc(-c2ccc(F)cc2)c(-c2ccc(S(C)(=O)=O)cc2)c(=O)o1,–,–,–,–,–
42.6 µM,35 µM,CC(C)COc1cc(-c2ccc(F)cc2)c(-c2ccc(S(C)(=O)=O)cc2)c(=O)o1,–,–,–,–,–
3.1 µM,1.8 µM,CC(C)COc1cc(-c2ccccc2)c(-c2ccc(S(C)(=O)=O)cc2)c(=O)o1,–,–,–,–,–
15.7 µM,13.6 µM,CC(C)c1cc(-c2ccc(F)cc2)c(-c2ccc(S(C)(=O)=O)cc2)c(=O)o1,35.8%,69.1%,50.9%,20.7%,–
68.5 µM,20.4 µM,CC(C)(C)Oc1cc(-c2ccc(F)cc2)c(-c2ccc(S(C)(=O)=O)cc2)c(=O)o1,–,–,–,–,–
> 100 µM,1.44 µM,CCSc1cc(-c2ccc(F)cc2)c(-c2ccc(S(C)(=O)=O)cc2)c(=O)o1,25.8%,16.8%,54.3%,66%,–
> 100 µM,2.7 µM,CC(C)(C)Oc1cc(-c2ccccc2)c(-c2ccc(S(C)(=O)=O)cc2)c(=O)o1,29%,30.1%,73.8%,80.9%,–
–,–,CCSc1cc(-c2ccccc2)c(-c2ccc(S(C)(=O)=O)cc2)c(=O)o1,9.2%,19.5%,81%,77.4%,–
–,–,COc1cc(-c2ccccc2)c(-c2ccc(S(C)(=O)=O)cc2)c(=O)o1,–,22%,55.2%,83.4%,inactive
–,–,Cc1cc(-c2ccccc2)c(-c2ccc(S(C)(=O)=O)cc2)c(=O)o1,12.5%,23.5%,57%,60.4%,–
> 1000 µM,59.5 µM,COc1cc(-c2ccc(F)cc2)c(-c2ccc(S(C)(=O)=O)cc2)c(=O)o1,30.6%,30%,49%,72.6%,–
560 µM,83.6 µM,CC(C)Oc1cc(-c2ccc(F)cc2)c(-c2ccc(S(C)(=O)=O)cc2)c(=O)o1,–,–,–,–,–
–,–,CC(C)Cc1ccc(C(C)C(=O)O)cc1 (stereo not drawn) [IBUPROFEN],56.2%,41.5%,–,–,–
> 100 µM,> 100 µM,CCCSc1cc(-c2ccccc2)c(-c2ccc(S(C)(=O)=O)cc2)c(=O)o1,–,–,–,–,–
288 µM,0.1 µM,CCOc1cc(-c2ccc(F)cc2)c(-c2ccc(S(C)(=O)=O)cc2)c(=O)o1,32.7%,67.8%,42.8%,75.7%,–
